This note sets out measurements from paper PMC4620497 (Scientific Reports, 2015).

The target of one test is T1, AAK1 (Homo sapiens, UniProt Q2M2I8).
T1 construct: purchased DiscoveRx KINOMEscan (Ambit Biosciences)
The experiment in a line: KINOMEscan panel screen. Format: binding. The conditions noted are these: read-out: Percent Control(%).

For test [1], the target named is T2, ABL1(T315I)-nonphosphorylated (Homo sapiens, UniProt P00519, T315I).
T2 construct: purchased DiscoveRx KINOMEscan (Ambit Biosciences)
The experiment in a line: KINOMEscan panel screen. To be noted: read-out: Percent Control(%). It counts as binding.

In test [2] the target is T3, ABL1(Y253F)-phosphorylated (Homo sapiens, UniProt P00519, Y253F).
T3 construct: purchased DiscoveRx KINOMEscan (Ambit Biosciences)
Put plainly: KINOMEscan panel screen. It counts as binding. To be noted: read-out: Percent Control(%).

For the next test, the target named is T4, CDK4-cyclinD1 (Homo sapiens, UniProt P11802).
T4 construct: purchased DiscoveRx KINOMEscan (Ambit Biosciences)
Put plainly: KINOMEscan panel screen. It counts as binding. The conditions noted are these: read-out: Percent Control(%).

In the next test the target is T5, CDK5 (Homo sapiens, UniProt Q00535).
T5 construct: purchased DiscoveRx KINOMEscan (Ambit Biosciences)
T5 sequence (Q00535 whole entry): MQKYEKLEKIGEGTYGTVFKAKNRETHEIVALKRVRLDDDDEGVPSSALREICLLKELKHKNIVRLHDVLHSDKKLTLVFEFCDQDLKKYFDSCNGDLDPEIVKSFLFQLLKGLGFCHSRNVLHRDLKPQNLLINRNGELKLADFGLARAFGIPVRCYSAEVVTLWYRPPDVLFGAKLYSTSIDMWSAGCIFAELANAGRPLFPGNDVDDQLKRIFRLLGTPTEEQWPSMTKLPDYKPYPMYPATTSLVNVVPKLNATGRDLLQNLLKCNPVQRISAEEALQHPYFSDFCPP
Put plainly: KINOMEscan panel screen. Format: binding. To be noted: read-out: Percent Control(%).

A further test has as its target T6, CDK8 (Homo sapiens, UniProt P49336).
T6 construct: purchased DiscoveRx KINOMEscan (Ambit Biosciences)
The experiment in a line: KINOMEscan panel screen. To be noted: read-out: Percent Control(%). It counts as binding.

A further test has as its target T7, CDKL3 (Homo sapiens, UniProt Q8IVW4).
T7 construct: purchased DiscoveRx KINOMEscan (Ambit Biosciences)
Put plainly: KINOMEscan panel screen. Format: binding. To be noted: read-out: Percent Control(%).

In another test the target is T8, CHEK1 (Homo sapiens, UniProt O14757).
T8 construct: purchased DiscoveRx KINOMEscan (Ambit Biosciences)
T8 sequence (O14757 1-476): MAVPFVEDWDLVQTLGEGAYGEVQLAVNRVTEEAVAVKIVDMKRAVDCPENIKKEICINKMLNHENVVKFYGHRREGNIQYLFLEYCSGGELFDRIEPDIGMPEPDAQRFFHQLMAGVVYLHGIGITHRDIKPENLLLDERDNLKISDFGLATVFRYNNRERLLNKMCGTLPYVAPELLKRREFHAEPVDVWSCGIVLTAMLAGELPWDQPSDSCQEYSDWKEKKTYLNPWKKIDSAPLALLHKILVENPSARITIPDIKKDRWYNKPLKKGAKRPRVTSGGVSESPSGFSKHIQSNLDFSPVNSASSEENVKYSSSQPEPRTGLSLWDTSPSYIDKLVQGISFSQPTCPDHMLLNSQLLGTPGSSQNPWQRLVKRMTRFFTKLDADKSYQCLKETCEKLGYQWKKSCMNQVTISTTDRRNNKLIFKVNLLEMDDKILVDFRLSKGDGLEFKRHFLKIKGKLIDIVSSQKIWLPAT
Put plainly: KINOMEscan panel screen. Format: binding. The conditions noted are these: read-out: Percent Control(%).

Another test concerns the target T9, HPK1 (Homo sapiens, UniProt Q92918).
T9 construct: purchased DiscoveRx KINOMEscan (Ambit Biosciences)
The experiment in a line: KINOMEscan panel screen. Format: binding. The conditions noted are these: read-out: Percent Control(%).

The target in another test is T10, JNK3 (Homo sapiens, UniProt P53779).
T10 construct: purchased DiscoveRx KINOMEscan (Ambit Biosciences)
The experiment in a line: KINOMEscan panel screen. It counts as binding. The conditions noted are these: read-out: Percent Control(%).

For a further test, the target named is T11, KIT(D816V) (Homo sapiens, UniProt P10721, D816V).
T11 construct: purchased DiscoveRx KINOMEscan (Ambit Biosciences)
Put plainly: KINOMEscan panel screen. It counts as binding. The conditions noted are these: read-out: Percent Control(%).

In another test the target is T12, KIT(V559D,T670I) (Homo sapiens, UniProt P10721, T670I/V559D).
T12 construct: purchased DiscoveRx KINOMEscan (Ambit Biosciences)
Put plainly: KINOMEscan panel screen. The conditions noted are these: read-out: Percent Control(%). Format: binding.

A further test has as its target T13, MAPKAPK2 (Homo sapiens, UniProt P49137).
T13 construct: purchased DiscoveRx KINOMEscan (Ambit Biosciences)
Put plainly: KINOMEscan panel screen. Format: binding. To be noted: read-out: Percent Control(%).

Another test has as its target T14, MARK2 (Homo sapiens, UniProt Q7KZI7).
T14 construct: purchased DiscoveRx KINOMEscan (Ambit Biosciences)
The experiment in a line: KINOMEscan panel screen. It counts as binding. To be noted: read-out: Percent Control(%).

For the next test, the target named is T15, PIK4CB (Homo sapiens, UniProt Q9UBF8).
T15 construct: purchased DiscoveRx KINOMEscan (Ambit Biosciences)
T15 sequence (Q9UBF8 whole entry): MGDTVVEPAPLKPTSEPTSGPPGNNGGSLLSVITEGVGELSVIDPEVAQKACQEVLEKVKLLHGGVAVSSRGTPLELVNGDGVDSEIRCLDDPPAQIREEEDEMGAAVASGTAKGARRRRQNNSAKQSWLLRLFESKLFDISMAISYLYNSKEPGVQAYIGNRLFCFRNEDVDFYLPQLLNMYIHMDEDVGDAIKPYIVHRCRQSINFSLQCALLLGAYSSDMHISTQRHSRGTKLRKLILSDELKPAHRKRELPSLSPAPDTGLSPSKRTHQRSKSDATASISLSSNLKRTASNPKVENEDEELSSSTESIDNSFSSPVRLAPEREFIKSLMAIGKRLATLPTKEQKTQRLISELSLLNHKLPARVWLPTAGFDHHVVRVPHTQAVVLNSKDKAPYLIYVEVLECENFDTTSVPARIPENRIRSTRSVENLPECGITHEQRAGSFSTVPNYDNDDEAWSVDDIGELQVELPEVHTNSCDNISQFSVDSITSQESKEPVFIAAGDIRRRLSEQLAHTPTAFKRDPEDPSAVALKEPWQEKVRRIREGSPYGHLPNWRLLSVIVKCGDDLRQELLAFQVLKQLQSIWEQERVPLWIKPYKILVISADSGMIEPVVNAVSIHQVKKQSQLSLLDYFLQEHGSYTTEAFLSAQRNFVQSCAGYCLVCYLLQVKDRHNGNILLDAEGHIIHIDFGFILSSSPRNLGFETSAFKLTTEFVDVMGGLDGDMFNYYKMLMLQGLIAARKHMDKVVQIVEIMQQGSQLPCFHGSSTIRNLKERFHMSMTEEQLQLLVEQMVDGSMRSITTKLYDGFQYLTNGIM
The experiment in a line: KINOMEscan panel screen. It counts as binding. The conditions noted are these: read-out: Percent Control(%).

For the next test, the target named is T16, PKAC-beta (Homo sapiens, UniProt P22694).
T16 construct: purchased DiscoveRx KINOMEscan (Ambit Biosciences)
Put plainly: KINOMEscan panel screen. The conditions noted are these: read-out: Percent Control(%). It counts as binding.

A further test has as its target T17, WNK3 (Homo sapiens, UniProt Q9BYP7).
T17 construct: purchased DiscoveRx KINOMEscan (Ambit Biosciences)
The experiment in a line: KINOMEscan panel screen. Format: binding. To be noted: read-out: Percent Control(%).

The target in the next test is FLT3-ITD (Homo sapiens, UniProt P36888, ITD). The experiment in a line: biochemical. Format: binding.
Another test deals with T18, TGFBR1 (Homo sapiens, UniProt P36897).
T18 construct: DNA tag (qPCR read-out); purchased Ambit Biosciences (KINOMEscan service)
T18 sequence (P36897 34-503): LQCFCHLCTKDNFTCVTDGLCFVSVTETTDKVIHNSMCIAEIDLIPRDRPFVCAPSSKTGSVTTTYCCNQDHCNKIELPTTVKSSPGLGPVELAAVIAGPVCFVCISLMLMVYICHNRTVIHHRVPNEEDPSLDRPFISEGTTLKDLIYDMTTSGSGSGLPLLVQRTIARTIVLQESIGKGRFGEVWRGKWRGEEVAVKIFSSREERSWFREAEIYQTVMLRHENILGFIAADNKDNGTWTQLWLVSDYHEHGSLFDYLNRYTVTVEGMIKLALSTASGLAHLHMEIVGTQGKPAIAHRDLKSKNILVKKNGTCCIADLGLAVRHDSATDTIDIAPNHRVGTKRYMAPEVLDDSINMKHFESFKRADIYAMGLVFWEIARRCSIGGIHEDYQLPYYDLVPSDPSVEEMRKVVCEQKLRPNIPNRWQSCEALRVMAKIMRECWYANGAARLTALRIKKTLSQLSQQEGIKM
The experiment in a line: KINOMEscan kinase binding assay (Kd).

Test [3] relates to active β-catenin, NKD1, AXIN2 in MV4-11 tumors. Put plainly: Wnt/β-catenin signaling in MV4-11 xenograft tumors (western blot, qPCR). It counts as in vivo, NOD-SCID mice. The conditions noted are these: single oral dose 10 mg/kg. (In general: A western blot detects proteins with antibodies after separation by electrophoresis.)
Procedure: Western blot assays and real-time qPCR assays were conducted on the harvested tumors.
Whole protein lysates of tumor samples were collected by the abrading of tumors in liquid nitrogen. […] Quantitative analysis of the protein level was performed with NIH image analysis software, ImageJ (normalized relative to the vehicle control).
Total RNA of cell samples and tumor samples was extracted using RNAsimple total RNA kit (TIANGEN) according to the manufacturer’s instructions. cDNA was generated using the iScript^TMcDNA Synthesis Kit (Bio-Rad), and the RT-PCR reactions were performed using SsoAdvanced SYBR Green Supermix (Bio-Rad). The reaction consisted of 40 cycles of denaturation at 95 °C for 5 s and annealing/extension for 30s at 60 °C.
The mice were assigned to 5 groups (n = 6 in each group). […] The mean values ± SD are shown. […] Representative images were shown.
Another test has as its system B16. The experiment in a line: MTT cell viability assay. To be noted: Mus musculus, B16, 72 h.

SMILES strings stand for the structures. Some results are limits rather than exact numbers.

T7 sequence (Q8IVW4 whole entry): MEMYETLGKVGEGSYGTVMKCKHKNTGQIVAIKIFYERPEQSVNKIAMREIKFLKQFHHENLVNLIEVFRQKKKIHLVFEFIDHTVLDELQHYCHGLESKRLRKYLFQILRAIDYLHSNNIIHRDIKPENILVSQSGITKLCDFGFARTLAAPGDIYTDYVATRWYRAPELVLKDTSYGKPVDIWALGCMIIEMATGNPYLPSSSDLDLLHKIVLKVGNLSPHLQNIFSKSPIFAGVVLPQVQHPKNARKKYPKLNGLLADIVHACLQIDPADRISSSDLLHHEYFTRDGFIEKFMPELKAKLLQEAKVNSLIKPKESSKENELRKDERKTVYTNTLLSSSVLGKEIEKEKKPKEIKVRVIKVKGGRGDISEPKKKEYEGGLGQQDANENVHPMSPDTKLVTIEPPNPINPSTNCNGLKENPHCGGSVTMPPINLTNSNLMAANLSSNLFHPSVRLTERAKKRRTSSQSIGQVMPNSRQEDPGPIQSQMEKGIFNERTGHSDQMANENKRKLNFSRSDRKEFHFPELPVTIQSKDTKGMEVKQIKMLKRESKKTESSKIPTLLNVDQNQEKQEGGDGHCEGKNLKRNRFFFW
T1 sequence (Q2M2I8 whole entry): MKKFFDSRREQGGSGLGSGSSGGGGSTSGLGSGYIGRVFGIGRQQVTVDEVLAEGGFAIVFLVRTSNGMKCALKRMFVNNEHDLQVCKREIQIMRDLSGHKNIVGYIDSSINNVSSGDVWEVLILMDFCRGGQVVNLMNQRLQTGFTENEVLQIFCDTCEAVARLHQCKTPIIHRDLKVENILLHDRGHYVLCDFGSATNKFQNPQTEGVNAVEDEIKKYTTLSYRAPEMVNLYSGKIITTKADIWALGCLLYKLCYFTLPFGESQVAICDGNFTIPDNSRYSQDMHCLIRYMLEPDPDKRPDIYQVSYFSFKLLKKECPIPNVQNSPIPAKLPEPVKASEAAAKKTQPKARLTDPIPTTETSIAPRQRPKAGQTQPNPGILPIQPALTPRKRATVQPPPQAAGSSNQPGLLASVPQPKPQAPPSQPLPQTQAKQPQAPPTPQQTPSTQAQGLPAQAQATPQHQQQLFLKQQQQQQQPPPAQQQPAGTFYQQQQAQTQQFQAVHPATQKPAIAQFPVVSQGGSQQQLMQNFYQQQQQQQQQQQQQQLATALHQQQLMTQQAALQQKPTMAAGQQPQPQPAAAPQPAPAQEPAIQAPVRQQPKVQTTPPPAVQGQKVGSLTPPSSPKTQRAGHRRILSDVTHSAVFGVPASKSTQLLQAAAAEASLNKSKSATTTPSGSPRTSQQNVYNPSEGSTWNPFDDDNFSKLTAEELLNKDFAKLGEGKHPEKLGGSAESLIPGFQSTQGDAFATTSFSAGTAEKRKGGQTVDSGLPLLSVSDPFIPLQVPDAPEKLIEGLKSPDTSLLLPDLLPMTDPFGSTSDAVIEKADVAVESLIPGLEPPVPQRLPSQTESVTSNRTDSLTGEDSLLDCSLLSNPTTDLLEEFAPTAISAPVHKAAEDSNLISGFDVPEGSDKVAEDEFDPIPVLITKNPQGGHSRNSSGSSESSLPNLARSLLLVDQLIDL
T6 sequence (P49336 whole entry): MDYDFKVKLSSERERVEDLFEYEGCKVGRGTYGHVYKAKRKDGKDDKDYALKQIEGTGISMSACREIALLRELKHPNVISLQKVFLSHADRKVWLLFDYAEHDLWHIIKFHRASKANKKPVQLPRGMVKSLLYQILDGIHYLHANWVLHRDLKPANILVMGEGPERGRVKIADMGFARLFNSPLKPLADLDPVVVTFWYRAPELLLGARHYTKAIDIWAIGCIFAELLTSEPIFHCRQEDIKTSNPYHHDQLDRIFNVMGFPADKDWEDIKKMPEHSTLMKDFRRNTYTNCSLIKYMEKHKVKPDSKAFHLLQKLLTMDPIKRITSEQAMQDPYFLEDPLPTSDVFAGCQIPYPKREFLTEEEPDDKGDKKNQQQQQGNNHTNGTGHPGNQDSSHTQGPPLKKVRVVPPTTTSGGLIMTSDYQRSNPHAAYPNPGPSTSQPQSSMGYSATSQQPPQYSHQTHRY
T9 sequence (Q92918 whole entry): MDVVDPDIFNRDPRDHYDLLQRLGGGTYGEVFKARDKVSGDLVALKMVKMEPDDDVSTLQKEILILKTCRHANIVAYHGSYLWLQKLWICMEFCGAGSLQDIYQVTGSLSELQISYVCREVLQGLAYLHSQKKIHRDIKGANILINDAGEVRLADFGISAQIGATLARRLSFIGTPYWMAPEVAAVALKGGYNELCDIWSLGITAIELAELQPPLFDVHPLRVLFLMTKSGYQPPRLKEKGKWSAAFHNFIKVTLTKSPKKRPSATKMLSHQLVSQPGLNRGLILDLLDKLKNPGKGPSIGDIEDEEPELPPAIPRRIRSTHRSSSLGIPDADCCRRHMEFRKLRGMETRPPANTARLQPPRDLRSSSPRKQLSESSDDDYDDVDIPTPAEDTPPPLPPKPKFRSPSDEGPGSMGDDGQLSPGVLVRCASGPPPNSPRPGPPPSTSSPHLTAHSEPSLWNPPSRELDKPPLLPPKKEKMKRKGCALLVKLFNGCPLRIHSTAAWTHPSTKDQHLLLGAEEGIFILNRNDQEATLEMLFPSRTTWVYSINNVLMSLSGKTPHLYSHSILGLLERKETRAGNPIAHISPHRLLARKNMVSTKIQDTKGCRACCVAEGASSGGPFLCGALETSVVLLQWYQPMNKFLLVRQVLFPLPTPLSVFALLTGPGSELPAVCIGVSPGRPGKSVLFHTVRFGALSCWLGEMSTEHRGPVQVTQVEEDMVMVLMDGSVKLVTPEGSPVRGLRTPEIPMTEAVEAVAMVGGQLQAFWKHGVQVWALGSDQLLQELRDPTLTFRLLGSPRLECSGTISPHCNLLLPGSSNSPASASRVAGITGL
T13 sequence (P49137 whole entry): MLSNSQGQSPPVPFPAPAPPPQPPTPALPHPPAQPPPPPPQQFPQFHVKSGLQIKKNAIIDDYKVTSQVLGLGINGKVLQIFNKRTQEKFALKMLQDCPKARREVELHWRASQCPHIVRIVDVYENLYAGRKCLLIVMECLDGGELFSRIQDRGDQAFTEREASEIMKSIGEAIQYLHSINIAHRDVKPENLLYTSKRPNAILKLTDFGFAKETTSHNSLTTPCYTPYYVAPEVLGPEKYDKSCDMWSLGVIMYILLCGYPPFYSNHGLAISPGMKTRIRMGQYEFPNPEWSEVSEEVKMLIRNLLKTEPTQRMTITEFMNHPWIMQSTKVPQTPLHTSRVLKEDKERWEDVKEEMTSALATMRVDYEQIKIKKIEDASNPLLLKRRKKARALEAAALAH

One may read the Kd as the concentration at which binding is half-saturated. Low readings indicate tighter binding, high ones weaker binding. A word on the IC50: it is the midpoint of a concentration-inhibition curve. For `CC(C)(C)c1cc(NC(=O)Nc2ccc(Oc3ncnc4[nH]ncc34)c(F)c2)no1` [SKLB-677, 1-(4-(1H-pyrazolo[3,4-d]pyrimidin-4-yloxy)-3-fluorophenyl)-3-(5-tert-butylisoxazol-3-yl)urea], the remaining binding at 10 µM on AAK1 worked out at 72%; in test [1] it was 3%; in test [2] it was 10%; on CDK4-cyclinD1, 29%; on CDK5, 4.2%; at CDK8, 3%. In addition, the remaining binding at 10 µM was found to be 0.75% on CDKL3; 100% on CHEK1; 13% at HPK1; 18% on JNK3; 0.2% on KIT(D816V); 0.1% on KIT(V559D,T670I). In addition, the remaining binding at 10 µM on MAPKAPK2 amounted to 100%; on MARK2, 98%; at PIK4CB it was 52%; at PKAC-beta it was 88%; on WNK3, 100%. The Kd was 0.0013 µM at FLT3-ITD and greater than 10 µM on TGFBR1. In addition, in [3], the “mRNA level of NKD1 and AXIN2 in tumors” value is reported as “down-regulated”. Besides, in test [3], the “protein levels of active β-catenin and NKD1 in tumors” value is on record as “induced the reduction”. The IC50 with B16 was greater than 10 µM.
